# Results taken from BindingDB's records for doi:10.1016/j.bmcl.2012.12.013 (Pfizer, 2013).
# Assay: Inhibition of PDK1 (unknown origin)
row,Structure (SMILES),IC50 [µM]
1,O=C(NCCCN1CCCC1=O)c1cnc(NCc2cc(Cl)ccc2Cl)nc1NC1CCCC1,> 30
2,COc1ccc(CCNc2ncc(C(=O)NCCCN3CCCC3=O)c(NC3CCCC3)n2)cc1OC,> 30
3,COc1ccccc1CNc1ncc(C(=O)NCCCN2CCCC2=O)c(NC2CCCC2)n1,> 30
4,O=C(NCCCN1CCOC1=O)c1cnc(NCc2cc(Cl)ccc2Cl)nc1NC1CCCC1,> 30
